Assays:
[1] = target: Sodium-dependent serotonin transporter (Rattus norvegicus, UniProt P31652); experiment: Binding affinity towards Serotonin transporter was determined using 5-HT [3H]paroxetine as radioligand
[2] = target: Monoamine transporters; serotonin & dopamine (Homo sapiens) (UniProt P31645+Q01959); experiment: Ratio of IC50 of 5-hydroxy tryptamine to dopamine; type: protein assay
[3] = target: Sodium-dependent dopamine transporter (Rattus norvegicus, UniProt P23977); experiment: Binding affinity towards dopamine transporter was determined using DA[3H]WIN-35428 as radioligand
Sequence of Sodium-dependent dopamine transporter (P23977 whole entry): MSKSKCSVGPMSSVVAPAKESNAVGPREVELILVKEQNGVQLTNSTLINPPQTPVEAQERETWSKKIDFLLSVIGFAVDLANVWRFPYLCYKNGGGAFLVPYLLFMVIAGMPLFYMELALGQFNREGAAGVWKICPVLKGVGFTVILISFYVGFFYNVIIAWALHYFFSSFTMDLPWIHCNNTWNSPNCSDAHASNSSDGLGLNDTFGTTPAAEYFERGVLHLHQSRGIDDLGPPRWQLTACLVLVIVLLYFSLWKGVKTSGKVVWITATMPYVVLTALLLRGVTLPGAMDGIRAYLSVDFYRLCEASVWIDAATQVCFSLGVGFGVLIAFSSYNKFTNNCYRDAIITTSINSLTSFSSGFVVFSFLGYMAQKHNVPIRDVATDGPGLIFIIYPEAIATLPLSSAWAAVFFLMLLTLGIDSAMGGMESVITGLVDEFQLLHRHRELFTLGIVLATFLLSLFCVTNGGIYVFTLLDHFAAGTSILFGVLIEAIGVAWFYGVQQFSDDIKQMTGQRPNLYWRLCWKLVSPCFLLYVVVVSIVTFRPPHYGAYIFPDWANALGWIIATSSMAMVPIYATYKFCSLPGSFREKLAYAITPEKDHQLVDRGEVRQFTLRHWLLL

[4] = target: Norepinephrine transporter (Rattus norvegicus, UniProt Q9WTR4); experiment: Binding affinity towards Norepinephrine transporter was determined using NE[3H]Nisoxetine as radioligand
Sequence of Norepinephrine transporter (Q9WTR4 whole entry): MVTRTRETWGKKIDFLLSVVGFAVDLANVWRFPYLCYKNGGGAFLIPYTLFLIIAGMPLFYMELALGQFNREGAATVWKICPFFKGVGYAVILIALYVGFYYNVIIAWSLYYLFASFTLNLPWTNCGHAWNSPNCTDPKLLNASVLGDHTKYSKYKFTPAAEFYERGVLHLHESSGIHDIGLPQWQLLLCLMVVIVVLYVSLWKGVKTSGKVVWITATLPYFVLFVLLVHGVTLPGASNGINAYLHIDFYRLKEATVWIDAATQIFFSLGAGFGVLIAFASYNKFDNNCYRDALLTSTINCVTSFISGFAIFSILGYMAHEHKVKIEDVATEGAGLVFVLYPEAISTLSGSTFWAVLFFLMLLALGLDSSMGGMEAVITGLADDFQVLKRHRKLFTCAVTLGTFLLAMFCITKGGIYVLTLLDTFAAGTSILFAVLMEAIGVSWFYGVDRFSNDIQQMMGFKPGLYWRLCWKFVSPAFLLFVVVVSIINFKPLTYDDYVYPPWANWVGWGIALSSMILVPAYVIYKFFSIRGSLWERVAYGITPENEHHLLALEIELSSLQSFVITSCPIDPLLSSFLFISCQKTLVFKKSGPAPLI

[5] = Ratio of IC50 of norepinephrine to dopamine

Sequence of Monoamine transporters; serotonin & dopamine (Homo sapiens) (P31645 whole entry, looked up): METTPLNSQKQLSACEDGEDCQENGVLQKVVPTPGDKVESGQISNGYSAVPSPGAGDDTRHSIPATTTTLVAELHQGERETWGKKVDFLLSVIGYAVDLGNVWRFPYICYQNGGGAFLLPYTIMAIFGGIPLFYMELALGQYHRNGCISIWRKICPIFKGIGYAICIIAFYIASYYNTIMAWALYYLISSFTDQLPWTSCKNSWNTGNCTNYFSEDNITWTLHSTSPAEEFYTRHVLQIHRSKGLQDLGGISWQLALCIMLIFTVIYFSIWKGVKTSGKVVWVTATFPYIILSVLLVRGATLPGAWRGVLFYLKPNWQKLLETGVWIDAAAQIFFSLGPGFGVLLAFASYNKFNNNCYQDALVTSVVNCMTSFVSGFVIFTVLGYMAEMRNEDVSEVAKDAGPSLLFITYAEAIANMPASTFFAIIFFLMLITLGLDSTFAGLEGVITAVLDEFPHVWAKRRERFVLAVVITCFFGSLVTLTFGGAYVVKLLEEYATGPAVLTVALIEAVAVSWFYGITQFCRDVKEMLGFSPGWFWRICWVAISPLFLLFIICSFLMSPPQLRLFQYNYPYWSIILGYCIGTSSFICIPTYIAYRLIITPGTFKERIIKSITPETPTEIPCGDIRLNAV
Sequence of Monoamine transporters; serotonin & dopamine (Homo sapiens) (Q01959 whole entry, looked up): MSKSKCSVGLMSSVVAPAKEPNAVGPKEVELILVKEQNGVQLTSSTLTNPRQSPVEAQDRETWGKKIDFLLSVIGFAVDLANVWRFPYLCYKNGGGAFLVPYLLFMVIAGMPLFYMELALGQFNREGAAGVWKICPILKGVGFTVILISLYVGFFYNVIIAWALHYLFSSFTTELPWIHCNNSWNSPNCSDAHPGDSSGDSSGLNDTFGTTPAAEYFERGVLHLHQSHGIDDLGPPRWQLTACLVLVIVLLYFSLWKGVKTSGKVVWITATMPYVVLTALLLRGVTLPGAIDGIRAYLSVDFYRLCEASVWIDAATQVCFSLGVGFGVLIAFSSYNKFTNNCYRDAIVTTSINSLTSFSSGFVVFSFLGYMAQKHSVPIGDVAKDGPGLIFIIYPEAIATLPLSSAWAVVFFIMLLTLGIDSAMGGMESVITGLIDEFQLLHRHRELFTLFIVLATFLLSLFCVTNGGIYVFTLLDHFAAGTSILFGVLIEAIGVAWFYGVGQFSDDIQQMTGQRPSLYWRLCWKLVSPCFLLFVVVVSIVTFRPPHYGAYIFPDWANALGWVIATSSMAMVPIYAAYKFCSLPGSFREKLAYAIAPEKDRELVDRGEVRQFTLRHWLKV
Sequence of Sodium-dependent serotonin transporter (P31652 whole entry): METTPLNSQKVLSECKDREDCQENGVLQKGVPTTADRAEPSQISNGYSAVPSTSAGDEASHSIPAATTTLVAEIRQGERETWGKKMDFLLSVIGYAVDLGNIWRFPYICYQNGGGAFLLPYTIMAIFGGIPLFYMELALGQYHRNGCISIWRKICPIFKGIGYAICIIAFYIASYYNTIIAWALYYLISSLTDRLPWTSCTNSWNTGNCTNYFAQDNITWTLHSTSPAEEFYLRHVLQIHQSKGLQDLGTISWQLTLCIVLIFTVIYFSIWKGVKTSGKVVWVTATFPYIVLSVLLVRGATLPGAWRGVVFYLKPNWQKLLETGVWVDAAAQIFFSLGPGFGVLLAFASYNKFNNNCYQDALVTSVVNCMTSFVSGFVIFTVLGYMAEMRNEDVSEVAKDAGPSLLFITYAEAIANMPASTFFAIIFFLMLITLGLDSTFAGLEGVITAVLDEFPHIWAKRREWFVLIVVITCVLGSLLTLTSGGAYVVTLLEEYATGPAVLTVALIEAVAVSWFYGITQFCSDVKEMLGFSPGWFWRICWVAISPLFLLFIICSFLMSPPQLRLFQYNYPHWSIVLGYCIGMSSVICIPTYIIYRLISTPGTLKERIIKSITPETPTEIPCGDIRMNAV

SMILES | IC50 [1] [nM] | Ratio [2] | IC50 [3] [nM] | IC50 [4] [nM] | Ratio [5]
CN1C2CC[C@@H]1C[C@H](c1ccc(Cl)cc1)C2c1cc(-c2ccccc2)no1 (some centres undefined) | 2420 | 1890 | 1.28 | 504 | 394
CN1C2CCC1C(c1nnc(-c3ccccc3)o1)C(c1ccc(Cl)cc1)C2 (centres undefined) |  | 262 | 12.6 | 929 | 74
CN1C2CCC1C(c1ncc(-c3ccccc3)o1)C(c1ccc(Cl)cc1)C2 (centres undefined) |  | 57 | 19.7 | 496 | 25
CN1C2CCC1C(C(=O)Oc1ccccc1)C(c1ccc(Cl)cc1)C2 (centres undefined) |  | 1180 |  |  | 1490
CN1C2CCC1C(c1nc(-c3ccccc3)no1)C(c1ccc(Cl)cc1)C2 (centres undefined) |  | 120 | 1.62 | 245 | 151
